Reference: patent publication US7728012B2, “Carboxamide compounds and their use as calpain inhibitors” (Abbott GmbH & Co. KG, priority 2006, dated 2010)

Key:
Type in all cases: biochemical
[1] = biological target: T1, recombinant human cathepsin S (Homo sapiens, UniProt P25774); assay: Cathepsin S kinetic fluorescence enzyme inhibition assay; settings: selectivity ratio versus calpain I
T1 construct: purchased Calbiochem 219343; host or cells: E. coli
Procedure, shortened: (§1)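 cat B 0.25 nM + Z-Phe-Arg-AMC 100 μM; cat L 1 nM + Z-Phe-Arg-AMC 2 μM; cat S 0.5 nM (E. coli-expressed) + Z-Val-Val-Arg-AMC 20 μM. 50 mM MES pH 6.0, 2.5 mM L-Cys, RT. Ex 390/em 460, kinetic; Ki app = Cheng-Prusoff from IC50, mean of 2–4 curves.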

[2] = biological target: T2, cathepsin K activated from recombinant human procathepsin K (Homo sapiens, UniProt P43235); assay: Cathepsin K kinetic fluorescence enzyme inhibition assay; settings: selectivity ratio versus calpain I
T2 construct: purchased Calbiochem 342001; host or cells: E. coli
T2 sequence (P43235 115-329): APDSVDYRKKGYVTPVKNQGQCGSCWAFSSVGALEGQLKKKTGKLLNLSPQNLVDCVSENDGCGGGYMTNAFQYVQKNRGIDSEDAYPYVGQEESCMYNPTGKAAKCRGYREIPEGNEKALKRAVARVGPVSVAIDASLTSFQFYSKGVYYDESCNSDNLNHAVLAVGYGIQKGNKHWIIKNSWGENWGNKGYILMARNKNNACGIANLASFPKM

[3] = biological target: T3, cathepsin B isolated from human liver (Homo sapiens, UniProt P07858); assay: Cathepsin B kinetic fluorescence enzyme inhibition assay; settings: selectivity ratio versus calpain I
T3 construct: cathepsin B—isolated from human liver; purchased Calbiochem 219362; host or cells: human liver (tissue isolate)
Procedure, shortened: as §1

[4] = biological target: T4, cathepsin L isolated from human liver (Homo sapiens, UniProt P07711); assay: Cathepsin L kinetic fluorescence enzyme inhibition assay; settings: selectivity ratio versus calpain I
T4 construct: cathepsin L—isolated from human liver; purchased Calbiochem 219402; host or cells: human liver (tissue isolate)
T4 sequence (P07711 114-333): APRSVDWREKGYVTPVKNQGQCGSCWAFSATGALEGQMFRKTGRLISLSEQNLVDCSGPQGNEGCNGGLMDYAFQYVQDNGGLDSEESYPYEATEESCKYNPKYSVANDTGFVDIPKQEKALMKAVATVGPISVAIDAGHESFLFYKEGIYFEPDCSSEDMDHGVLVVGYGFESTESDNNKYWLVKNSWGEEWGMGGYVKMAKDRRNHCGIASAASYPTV
Procedure, shortened: as §1

[5] = biological target: T5, calpain-I isolated from human erythrocytes (Homo sapiens, UniProt P07384); assay: Calpain I kinetic fluorescence enzyme inhibition assay; settings: apparent Ki from IC50 by Cheng-Prussoff; average of 2 to 4 dose-effect plots
T5 construct: calpain-I—isolated from human erythrocytes; purchased Calbiochem 208713; host or cells: human erythrocytes (tissue isolate)
T5 sequence (P07384 1-714): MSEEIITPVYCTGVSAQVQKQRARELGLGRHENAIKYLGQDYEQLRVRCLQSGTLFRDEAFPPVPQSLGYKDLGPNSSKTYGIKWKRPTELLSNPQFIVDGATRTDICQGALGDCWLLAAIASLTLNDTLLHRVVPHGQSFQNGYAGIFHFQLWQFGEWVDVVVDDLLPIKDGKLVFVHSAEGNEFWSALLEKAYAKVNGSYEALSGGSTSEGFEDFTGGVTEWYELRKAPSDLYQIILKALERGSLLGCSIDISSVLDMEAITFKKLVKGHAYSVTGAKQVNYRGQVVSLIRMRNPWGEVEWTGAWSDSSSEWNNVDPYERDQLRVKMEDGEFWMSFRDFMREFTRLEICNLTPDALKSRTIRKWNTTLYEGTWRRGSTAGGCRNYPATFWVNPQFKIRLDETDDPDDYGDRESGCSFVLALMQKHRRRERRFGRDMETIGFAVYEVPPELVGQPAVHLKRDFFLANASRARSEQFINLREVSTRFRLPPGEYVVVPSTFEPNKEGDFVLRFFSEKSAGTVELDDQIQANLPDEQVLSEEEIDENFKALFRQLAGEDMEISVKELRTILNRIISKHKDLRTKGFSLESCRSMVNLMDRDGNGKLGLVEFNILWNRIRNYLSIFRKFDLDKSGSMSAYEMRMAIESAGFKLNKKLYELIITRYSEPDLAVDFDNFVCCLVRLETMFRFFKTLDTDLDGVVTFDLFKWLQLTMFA
T5 sequence (P04632 1-268 partner): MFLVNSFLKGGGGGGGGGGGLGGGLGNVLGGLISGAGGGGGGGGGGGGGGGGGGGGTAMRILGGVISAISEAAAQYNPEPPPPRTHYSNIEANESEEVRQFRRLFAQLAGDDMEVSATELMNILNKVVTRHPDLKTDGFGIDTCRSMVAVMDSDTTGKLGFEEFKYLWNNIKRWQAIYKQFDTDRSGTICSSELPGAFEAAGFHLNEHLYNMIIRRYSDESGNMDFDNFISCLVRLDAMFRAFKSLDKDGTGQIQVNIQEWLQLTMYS

T1 sequence (P25774 115-331): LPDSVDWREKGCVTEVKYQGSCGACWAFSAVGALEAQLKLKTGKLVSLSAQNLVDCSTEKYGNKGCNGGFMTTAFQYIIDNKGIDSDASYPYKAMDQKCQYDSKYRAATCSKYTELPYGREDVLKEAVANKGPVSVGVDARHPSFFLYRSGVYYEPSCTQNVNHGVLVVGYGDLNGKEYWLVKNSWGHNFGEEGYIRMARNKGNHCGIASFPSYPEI

Structure (SMILES) | Ki [5] | Sel cat. S (Ki(cathepsin S)/Ki(calpain) ratio) [1] | Sel cat. K (Ki(cathepsin K)/Ki(calpain) ratio) [2] | Sel cat. B (Ki(cathepsin B)/Ki(calpain) ratio) [3] | Sel cat. L (Ki(cathepsin L)/Ki(calpain) ratio) [4]
COc1cc(Cl)ccc1-c1ccn(-c2ncccc2C(=O)NC(Cc2ccccc2)C(=O)C(N)=O)n1 (stereo not shown) [Example 139, N-[3-Amino-2,3-dioxo-1-(phenylmethyl)propyl]-2-{3-[4-chloro-2-(methyloxy)phenyl]-1H-pyrazol-1-yl}pyridine-3-carboxamide] | 40 to 100 nM | ++ (Ki(cathepsin S)/Ki(calpain) ratio of ≧100) | ++ (Ki(cathepsin K)/Ki(calpain) ratio of ≧30) | + (10≦Ki(cathepsin B)/Ki(calpain)<30) | ++ (Ki(cathepsin L)/Ki(calpain) ratio of ≧50)
NC(=O)C(=O)C(Cc1ccccc1)NC(=O)c1cccnc1-n1cc2c(n1)-c1cc(Cl)ccc1OC2 (stereo not shown) [Example 140, N-[3-Amino-2,3-dioxo-1-(phenylmethyl)propyl]-2-(8-chlorochromeno[4,3-c]pyrazol-2(4H)-yl)pyridine-3-carboxamide] | ≤ 40 nM | ++ (Ki(cathepsin S)/Ki(calpain) ratio of ≧100) | ++ (Ki(cathepsin K)/Ki(calpain) ratio of ≧30) | + (10≦Ki(cathepsin B)/Ki(calpain)<30) | ++ (Ki(cathepsin L)/Ki(calpain) ratio of ≧50)
COc1ccc2c(c1)OCc1cn(-c3ncccc3C(=O)NC(Cc3ccccc3)C(=O)C(N)=O)nc1-2 (stereo not shown) [Example 142, N-[3-Amino-2,3-dioxo-1-(phenylmethyl)propyl]-2-[7-(methyloxy)chromeno[4,3-c]pyrazol-2(4H)-yl]pyridine-3-carboxamide] | ≤ 40 nM | ++ (Ki(cathepsin S)/Ki(calpain) ratio of ≧100) | + (10≦Ki(cathepsin K)/Ki(calpain)<30) | + (10≦Ki(cathepsin B)/Ki(calpain)<30) | ++ (Ki(cathepsin L)/Ki(calpain) ratio of ≧50)
Cc1c(Cl)ccc2c1-c1nn(-c3ncccc3C(=O)NC(Cc3ccccc3)C(=O)C(N)=O)cc1CO2 (stereo not shown) [Example 143, N-[3-Amino-2,3-dioxo-1-(phenylmethyl)propyl]-2-(8-chloro-9-methylchromeno[4,3-c]pyrazol-2(4H)-yl)pyridine-3-carboxamide] | 40 to 100 nM | ++ (Ki(cathepsin S)/Ki(calpain) ratio of ≧100) | ++ (Ki(cathepsin K)/Ki(calpain) ratio of ≧30) | ++ (Ki(cathepsin B)/Ki(calpain) ratio of ≧30) | ++ (Ki(cathepsin L)/Ki(calpain) ratio of ≧50)
NC(=O)C(=O)C(Cc1ccc(F)cc1)NC(=O)c1cccnc1-n1ccc(-c2ccccc2OC(F)(F)F)n1 (stereo not shown) [Example 152, N-{3-Amino-1-[(4-fluorophenyl)methyl]-2,3-dioxopropyl}-2-(3-{2-[(trifluoromethyl)oxy]phenyl}-1H-pyrazol-1-yl)pyridine-3-carboxamide] | ≤ 40 nM | ++ (Ki(cathepsin S)/Ki(calpain) ratio of ≧100) | ++ (Ki(cathepsin K)/Ki(calpain) ratio of ≧30) | ++ (Ki(cathepsin B)/Ki(calpain) ratio of ≧30) | ++ (Ki(cathepsin L)/Ki(calpain) ratio of ≧50)
COc1ccc(CC(NC(=O)c2cccnc2-n2ccc(-c3cccc(Cl)c3Cl)n2)C(=O)C(N)=O)cc1 (stereo not shown) [Example 153, N-(3-Aamino-1-{[4-(methyloxy)phenyl]methyl}-2,3-dioxopropyl)-2-[3-(2,3-dichlorophenyl)-1H-pyrazol-1-yl]pyridine-3-carboxamide] | ≤ 40 nM | ++ (Ki(cathepsin S)/Ki(calpain) ratio of ≧100) | ++ (Ki(cathepsin K)/Ki(calpain) ratio of ≧30) | ++ (Ki(cathepsin B)/Ki(calpain) ratio of ≧30) | ++ (Ki(cathepsin L)/Ki(calpain) ratio of ≧50)
NC(=O)C(=O)C(Cc1ccccc1)NC(=O)c1cccnc1-n1ccc(-c2cccc(C(F)(F)F)c2Cl)n1 (stereo not shown) [Example 155, N-[3-Amino-2,3-dioxo-1-(phenylmethyl)propyl]-2-{3-[2-chloro-3-(trifluoromethyl)phenyl]-1H-pyrazol-1-yl}pyridine-3-carboxamide] | 40 to 100 nM | ++ (Ki(cathepsin S)/Ki(calpain) ratio of ≧100) | ++ (Ki(cathepsin K)/Ki(calpain) ratio of ≧30) | ++ (Ki(cathepsin B)/Ki(calpain) ratio of ≧30) | ++ (Ki(cathepsin L)/Ki(calpain) ratio of ≧50)

Further lines, with some results ahead:

Ki [5] | Structure (SMILES) | Sel cat. S (Ki(cathepsin S)/Ki(calpain) ratio) [1] | Sel cat. K (Ki(cathepsin K)/Ki(calpain) ratio) [2] | Sel cat. B (Ki(cathepsin B)/Ki(calpain) ratio) [3] | Sel cat. L (Ki(cathepsin L)/Ki(calpain) ratio) [4]
≤ 40 nM | COc1ccc(CC(NC(=O)c2cccnc2-n2ccc(-c3cccc(F)c3Cl)n2)C(=O)C(N)=O)cc1 (stereo not shown) [Example 157, N-(3-Amino-1-{[4-(methyloxy)phenyl]methyl}-2,3-dioxopropyl)-2-[3-(2-chloro-3-fluorophenyl)-1H-pyrazol-1-yl]pyridine-3-carboxamide] | ++ (Ki(cathepsin S)/Ki(calpain) ratio of ≧100) | ++ (Ki(cathepsin K)/Ki(calpain) ratio of ≧30) | ++ (Ki(cathepsin B)/Ki(calpain) ratio of ≧30) | ++ (Ki(cathepsin L)/Ki(calpain) ratio of ≧50)
40 to 100 nM | CS(=O)(=O)Nc1cnc(-n2ccc(-c3ccccc3)n2)c(C(=O)NC(Cc2ccccc2)C(=O)C(N)=O)c1 (stereo not shown) [Example 158, N-[3-Amino-2,3-dioxo-1-(phenylmethyl)propyl]-5-[(methylsulfonyl)amino]-2-(3-phenyl-1H-pyrazol-1-yl)pyridine-3-carboxamide] | ++ (Ki(cathepsin S)/Ki(calpain) ratio of ≧100) | ++ (Ki(cathepsin K)/Ki(calpain) ratio of ≧30) | ++ (Ki(cathepsin B)/Ki(calpain) ratio of ≧30) | ++ (Ki(cathepsin L)/Ki(calpain) ratio of ≧50)
40 to 100 nM | NC(=O)C(=O)C(Cc1ccccc1)NC(=O)c1cccnc1-n1ccc(-c2cccc3cccnc23)n1 (stereo not shown) [Example 160, N-[3-amino-2,3-dioxo-1-(phenylmethyl)propyl]-2-(3-quinolin-8-yl-1H-pyrazol-1-yl)pyridine-3-carboxamide] | ++ (Ki(cathepsin S)/Ki(calpain) ratio of ≧100) | ++ (Ki(cathepsin K)/Ki(calpain) ratio of ≧30) | ++ (Ki(cathepsin B)/Ki(calpain) ratio of ≧30) | ++ (Ki(cathepsin L)/Ki(calpain) ratio of ≧50)
40 to 100 nM | NC(=O)C(=O)C(Cc1cccc(F)c1)NC(=O)c1cccnc1-n1ccc(-c2ccccc2OC(F)(F)F)n1 (stereo not shown) [Example 162, N-{3-Amino-1-[(3-fluorophenyl)methyl]-2,3-dioxopropyl}-2-(3-{2-[(trifluoromethyl)oxy]phenyl}-1H-pyrazol-1-yl)pyridine-3-carboxamide] | ++ (Ki(cathepsin S)/Ki(calpain) ratio of ≧100) | ++ (Ki(cathepsin K)/Ki(calpain) ratio of ≧30) | ++ (Ki(cathepsin B)/Ki(calpain) ratio of ≧30) | ++ (Ki(cathepsin L)/Ki(calpain) ratio of ≧50)
